Data published in US9682995B2, “Amino-substituted isothiazoles” (BAYER PHARMA AKTIENGESELLSCHAFT, priority 2013, dated 2017).

Columns and labels:
HeLa = experiment: Proliferation assay (crystal violet), HeLa; format: cell-based; settings: Homo sapiens, 96 h, 4 days, read-out: Inhibition of proliferation IC50 HeLa
In short: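 Tumour cells seeded at 1000–5000 cells/well in medium with 10% FCS, dosed after 24 h at 0.001–10 μM (0.5% DMSO final) for 4 days. Cell number read by crystal-violet staining after glutaraldehyde fixation (A595), normalised to zero-point plate (0%) and untreated cells (100%); IC50 from 4-parameter fit.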

CDK2/CycE = CDK2/CycE (Homo sapiens (Human), UniProt P24941); experiment: CDK2/CycE kinase assay (TR-FRET); format: biochemical; settings: 10 μM ATP; read-out: CDK2 avg (IC50 [mol/l])
In short: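 GST-tagged human CDK2 and GST-CycE from Sf9 cells (~130 ng/ml) were preincubated with compound for 15 min at 22 °C. Reaction with 10 μM ATP and 0.75 μM biotinylated peptide (final) ran 25 min at 22 °C, pH 8.0. Phospho-peptide was read by TR-FRET (665/620 nm ratio, anti-pRB antibody, Eu donor) and normalised to no-enzyme and no-inhibitor controls.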

SMILES	IC50 (HeLa)	IC50 (CDK2/CycE)
COC(=O)c1cnc(Nc2snc(C)c2C(=O)Nc2ccc(OC)nc2)cn1 [Example 32, Methyl 5-({4-[(6-methoxypyridin-3-yl)carbamoyl]-3-methyl-1,2-thiazol-5-yl}amino)-pyrazine-2-carboxylate]	8.3 µM	> 20 µM
COc1ccc(Oc2ccc(NC(=O)c3c(C)nsc3Nc3cnc4ccccc4n3)cn2)cc1 [Example 116, N-[6-(4-Methoxyphenoxy)pyridin-3-yl]-3-methyl-5-(quinoxaline-2-ylamino)-1,2-thiazole-4-carboxamide]	3.2 µM	> 20 µM
CNC(=O)c1ccnc(Nc2snc(C)c2C(=O)Nc2ccc(F)c(F)c2)c1 [Example 108, 2-({4-[(3,4-Difluorophenyl)-carbamoyl]-3-methyl-1,2-thiazol-5-yl}amino)-N-methyliso-nicotinamide]	10 µM	> 20 µM
Cc1nsc(Nc2cnc(C(=O)N(C)C)cn2)c1C(=O)Nc1ccc(F)c(F)c1 [Example 109, 5-({4-[(3,4-Difluorophenyl)carbamoyl]-3-methyl-1,2-thiazol-5-yl}amino)-N,N-dimethylpyrazine-2-carboxamide]	5 µM	> 20 µM

Next, values leading:

IC50 (HeLa)	IC50 (CDK2/CycE)	SMILES
2.2 µM	> 20 µM	CCc1ccccc1NC(=O)c1c(C)nsc1Nc1cnc2cccc(C)c2n1 [Example 33, N-(2-Ethylphenyl)-3-methyl-5-[(8-methylquinoxalin-2-yl)amino]-1,2-thiazole-4-carboxamide]
3.2 µM	> 20 µM	CCc1ccccc1NC(=O)c1c(C)nsc1Nc1ccnc(C#N)n1 [Example 6, 5-[(2-Cyanopyrimidin-4-yl)amino]-N-(2-ethylphenyl)-3-methyl-1,2-thiazole-4-carboxamide]
2.4 µM	> 20 µM	COc1ccc(NC(=O)c2c(C)nsc2Nc2cnc3ccc(F)cc3n2)cn1 [Example 44, 5-[(7-Fluoroquinoxalin-2-yl)amino]-N-(6-methoxypyridin-3-yl)-3-methyl-1,2-thiazole-4-carboxamide]
1 µM	> 20 µM	Cc1nsc(Nc2nc3c(C(F)(F)F)cccc3s2)c1C(=O)Nc1ccc(Cl)c(F)c1 [Example 53, N-(4-Chloro-3-fluorophenyl)-3-methyl-5-{[4-(trifluoromethyl)-1,3-benzothiazol-2-yl]amino}-1,2-thiazole-4-carboxamide]
